ChEMBL document CHEMBL1201862, “PubChem BioAssay data set” (2004)
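96-well plates; 48 h exposure; 5 concentrations. Endpoints by linear interpolation between flanking doses. Not reached: highest tested concentration assigned. Abbreviation: GI50, concentration required for 50% inhibition of growth.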 Active and inactive are the calls of the source. Cut-off read from the data, not from the text of the source: active = GI50 up to about 1.1 µM and inactive = higher.

Columns and labels:
Assay in all cases: NCI anticancer screen, dose series, 48 h
A498 = test system: A498
ACHN = test system: ACHN
HCT-15 = test system: HCT-15
HOP-62 = test system: HOP-62
HOP-92 = test system: HOP-92
K562 = test system: K562
MOLT-4 = test system: MOLT-4
OVCAR-4 = test system: OVCAR-4
OVCAR-5 = test system: OVCAR-5
SF-295 = test system: SF-295
SF-539 = test system: SF-539
SK-MEL-28 = test system: SK-MEL-28
SK-MEL-2 = test system: SK-MEL-2
SNB-75 = test system: SNB-75
U-251 = test system: U-251
DU-145 = test system: DU-145
MCF7 = test system: MCF7
NCI/ADR-RES = test system: NCI/ADR-RES
PC-3 = test system: PC-3

SMILES | GI50 (A498) | GI50 (ACHN) | GI50 (HCT-15) | GI50 (HOP-62) | GI50 (HOP-92) | GI50 (K562) | GI50 (MOLT-4) | GI50 (OVCAR-4) | GI50 (OVCAR-5) | GI50 (SF-295) | GI50 (SF-539) | GI50 (SK-MEL-28) | GI50 (SK-MEL-2) | GI50 (SNB-75) | GI50 (U-251) | GI50 (DU-145) | GI50 (MCF7) | GI50 (NCI/ADR-RES) | GI50 (PC-3)
CCOC(=O)C(C(O)c1ccc([N+](=O)[O-])cc1)P(=O)(OCC)OCC (stereo unspecified) | > 100 µM (inactive) | > 100 µM (inactive) | > 100 µM | > 100 µM (inactive) | 34 µM (inactive) | 31.3 µM (inactive) | 57.9 µM (inactive) | > 100 µM (inactive) | > 100 µM (inactive) | > 100 µM (inactive) | > 100 µM (inactive) | > 100 µM (inactive) | > 100 µM (inactive) | 35.4 µM (inactive) | > 100 µM (inactive) | – | – | – | –
CC(C)N1CC2CC(CN(C(=O)c3ccc(Cl)cc3)C2)C1 | > 100 µM (inactive) | > 100 µM (inactive) | > 100 µM | > 100 µM (inactive) | > 100 µM (inactive) | > 100 µM (inactive) | > 100 µM (inactive) | > 100 µM (inactive) | > 100 µM (inactive) | > 100 µM (inactive) | > 100 µM (inactive) | > 100 µM (inactive) | > 100 µM (inactive) | > 100 µM (inactive) | > 100 µM (inactive) | – | – | – | –
O=c1oc2ccccc2[n+]([O-])c1-c1ccccc1 | > 100 µM (inactive) | > 100 µM (inactive) | > 100 µM | > 100 µM (inactive) | > 100 µM (inactive) | > 100 µM (inactive) | > 100 µM (inactive) | > 100 µM (inactive) | > 100 µM (inactive) | > 100 µM (inactive) | > 100 µM (inactive) | > 100 µM (inactive) | > 100 µM (inactive) | 49.7 µM (inactive) | > 100 µM (inactive) | – | – | – | –
CN(CCN1C(=O)c2cc([N+](=O)[O-])cc3cc([N+](=O)[O-])cc(c23)C1=O)CCN1C(=O)c2cc([N+](=O)[O-])cc3cc([N+](=O)[O-])cc(c23)C1=O | 12.8 µM (inactive) | 0.264 µM (active) | 0.482 µM | 2.65 µM (inactive) | 0.252 µM (active) | 0.23 µM (active) | 0.0485 µM (active) | 0.524 µM (active) | 1.69 µM (inactive) | 0.59 µM (active) | 0.399 µM (active) | 0.798 µM (active) | 0.764 µM (active) | 0.695 µM (active) | 0.375 µM (active) | – | – | – | –
Cc1ccc(S(=O)(=O)c2ccc(C)cc2[N+](=O)[O-])cc1 | 19.4 µM (inactive) | > 100 µM (inactive) | > 100 µM | > 100 µM (inactive) | > 100 µM (inactive) | 50.5 µM (inactive) | 45.1 µM (inactive) | > 100 µM (inactive) | > 100 µM (inactive) | 79.4 µM (inactive) | > 100 µM (inactive) | > 100 µM (inactive) | > 100 µM (inactive) | > 100 µM (inactive) | > 100 µM (inactive) | – | – | – | –
C=C/C=C(\NC(=O)C(Cl)(Cl)Cl)[Si](C)(C)C | > 100 µM (inactive) | > 100 µM (inactive) | > 100 µM | > 100 µM (inactive) | > 100 µM (inactive) | > 100 µM (inactive) | > 100 µM (inactive) | > 100 µM (inactive) | > 100 µM (inactive) | > 100 µM (inactive) | > 100 µM (inactive) | > 100 µM (inactive) | > 100 µM (inactive) | > 100 µM (inactive) | > 100 µM (inactive) | – | – | – | –
CC(C)[C@H]1C(=O)O[B@-](F)(c2ccccc2)/[N+]1=C\N(C)C | – | > 100 µM (inactive) | > 100 µM | > 100 µM (inactive) | > 100 µM (inactive) | > 100 µM (inactive) | > 100 µM (inactive) | 30.1 µM (inactive) | > 100 µM (inactive) | > 100 µM (inactive) | – | > 100 µM (inactive) | – | > 100 µM (inactive) | > 100 µM (inactive) | > 100 µM (inactive) | > 100 µM (inactive) | > 100 µM (inactive) | > 100 µM (inactive)
